Experimental data published in patent US20070281330A1, “Method for Examining the Activity of Ion Channels” (priority 2004, published 2007).
Where “and” joins values, the source holds several entries; their conditions need not be identical. Identical values can stand only once.

Experiments:
[1] = target: sodium channel SCN5a (Homo sapiens, UniProt Q14524); type: cell-based
[2] = target: T1, Kv1.3 (Homo sapiens, UniProt P22001); assay: FMP membrane potential assay on Kv1.3, suspension cells; type: cell-based; conditions: 100 nM Margatoxin, FMP dye
T1 construct: expressed in transfected cells

[3] = 110 min 1° C. (after 10 min room temperature)

Sequence of sodium channel SCN5a (Q14524 whole entry, looked up): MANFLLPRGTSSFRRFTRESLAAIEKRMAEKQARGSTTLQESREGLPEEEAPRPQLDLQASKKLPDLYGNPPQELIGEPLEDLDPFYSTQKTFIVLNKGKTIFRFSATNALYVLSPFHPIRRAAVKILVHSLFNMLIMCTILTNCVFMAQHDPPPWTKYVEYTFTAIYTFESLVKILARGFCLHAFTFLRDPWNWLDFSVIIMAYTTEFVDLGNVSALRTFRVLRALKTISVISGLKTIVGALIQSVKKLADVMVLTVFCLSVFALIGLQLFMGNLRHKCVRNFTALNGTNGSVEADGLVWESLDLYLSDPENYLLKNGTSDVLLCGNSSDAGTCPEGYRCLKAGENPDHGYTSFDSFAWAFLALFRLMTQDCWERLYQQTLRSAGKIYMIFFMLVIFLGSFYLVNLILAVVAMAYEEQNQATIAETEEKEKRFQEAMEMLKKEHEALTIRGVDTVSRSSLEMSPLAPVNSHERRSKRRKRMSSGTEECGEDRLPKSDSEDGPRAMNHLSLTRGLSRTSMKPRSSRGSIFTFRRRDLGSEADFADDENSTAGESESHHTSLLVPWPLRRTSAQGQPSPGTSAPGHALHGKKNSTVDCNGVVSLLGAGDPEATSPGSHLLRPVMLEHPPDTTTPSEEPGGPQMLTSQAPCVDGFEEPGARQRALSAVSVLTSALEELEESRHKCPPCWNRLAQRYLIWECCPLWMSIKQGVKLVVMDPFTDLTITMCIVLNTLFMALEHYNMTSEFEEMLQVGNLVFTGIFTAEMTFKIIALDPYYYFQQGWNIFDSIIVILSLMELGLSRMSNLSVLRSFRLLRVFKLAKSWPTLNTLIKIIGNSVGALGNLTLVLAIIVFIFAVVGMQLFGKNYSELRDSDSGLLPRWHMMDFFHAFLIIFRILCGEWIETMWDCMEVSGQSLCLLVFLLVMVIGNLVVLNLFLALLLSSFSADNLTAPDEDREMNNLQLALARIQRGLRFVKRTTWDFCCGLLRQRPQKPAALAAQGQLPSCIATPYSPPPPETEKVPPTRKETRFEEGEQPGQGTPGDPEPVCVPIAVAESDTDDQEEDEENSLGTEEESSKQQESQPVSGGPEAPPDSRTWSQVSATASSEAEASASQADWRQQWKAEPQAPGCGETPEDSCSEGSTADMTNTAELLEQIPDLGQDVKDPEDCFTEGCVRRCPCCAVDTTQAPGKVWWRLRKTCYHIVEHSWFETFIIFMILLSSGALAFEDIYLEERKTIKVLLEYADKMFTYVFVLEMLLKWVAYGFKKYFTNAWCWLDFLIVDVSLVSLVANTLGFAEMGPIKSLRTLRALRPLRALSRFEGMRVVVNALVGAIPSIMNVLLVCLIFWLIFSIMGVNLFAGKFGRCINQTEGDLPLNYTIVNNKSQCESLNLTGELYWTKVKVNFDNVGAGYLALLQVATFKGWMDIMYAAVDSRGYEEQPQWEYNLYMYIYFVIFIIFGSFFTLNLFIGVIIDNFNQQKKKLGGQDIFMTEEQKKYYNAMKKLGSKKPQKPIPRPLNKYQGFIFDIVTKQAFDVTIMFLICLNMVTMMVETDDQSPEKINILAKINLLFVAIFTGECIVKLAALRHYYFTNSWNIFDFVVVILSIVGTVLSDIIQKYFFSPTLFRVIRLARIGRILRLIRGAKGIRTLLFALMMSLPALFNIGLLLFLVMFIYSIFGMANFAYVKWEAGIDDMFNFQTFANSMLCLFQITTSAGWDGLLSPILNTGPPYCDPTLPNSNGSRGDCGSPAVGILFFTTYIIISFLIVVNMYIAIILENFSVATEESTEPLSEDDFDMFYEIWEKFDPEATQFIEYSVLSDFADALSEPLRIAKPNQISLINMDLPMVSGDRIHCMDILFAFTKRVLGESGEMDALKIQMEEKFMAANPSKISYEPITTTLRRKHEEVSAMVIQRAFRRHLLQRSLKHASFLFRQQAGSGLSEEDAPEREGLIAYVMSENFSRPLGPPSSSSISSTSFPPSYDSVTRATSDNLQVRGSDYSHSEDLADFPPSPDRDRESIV
T1 sequence (P22001 whole entry): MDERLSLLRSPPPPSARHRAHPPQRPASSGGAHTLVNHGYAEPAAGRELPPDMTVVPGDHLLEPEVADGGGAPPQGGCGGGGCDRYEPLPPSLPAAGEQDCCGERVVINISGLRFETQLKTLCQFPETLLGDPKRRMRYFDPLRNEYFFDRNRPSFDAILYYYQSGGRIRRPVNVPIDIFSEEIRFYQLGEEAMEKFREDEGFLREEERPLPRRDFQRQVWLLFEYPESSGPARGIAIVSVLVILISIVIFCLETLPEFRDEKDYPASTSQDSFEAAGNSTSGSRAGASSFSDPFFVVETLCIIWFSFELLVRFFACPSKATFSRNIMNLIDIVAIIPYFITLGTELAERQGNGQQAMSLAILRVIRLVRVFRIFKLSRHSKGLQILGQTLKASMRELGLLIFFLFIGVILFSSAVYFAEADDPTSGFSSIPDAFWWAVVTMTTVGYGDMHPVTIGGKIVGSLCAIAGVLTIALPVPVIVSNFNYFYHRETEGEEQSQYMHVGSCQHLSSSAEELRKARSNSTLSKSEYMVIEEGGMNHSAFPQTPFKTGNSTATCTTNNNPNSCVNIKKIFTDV

| Molecule | 18° C. [RFUs] [1] | Increase [%] ([2]; 10 min room temperature) | [rfu] ([2]; 10 min room temperature) | Increase [%] [2, 3] | [rfu] [2, 3] |
| --- | --- | --- | --- | --- | --- |
| NC1=N[C@H](O)[C@H]2[C@H]3O[C@]4(O)O[C@@H]([C@@H](O)[C@@]2(N1)[C@@H]4O)[C@]3(O)CO [TTX, tetrodotoxin] | 4636.0 RFUs and 5379.0 RFUs and 2882.0 RFUs and 3816.0 RFUs and 4067.0 RFUs and 4401.0 RFUs and 5620.0 RFUs and 5034.0 RFUs | – | – | – | – |
| Margatoxin | – | 3% and 2.93% | 22479.50 rfu | 68% and 68.04% | 47474.00 rfu |
